Laboratory results taken from PubChem BioAssay AID651729 (NMMLSC, 2012).

Each molecule was assayed on AM2.2 cells FAP-GPR32, fluorogen binding, flow cytometry MCF (assay: interference with FAP fluorogen signal – AM2.2 cells, flow cytometry, powder set 2, counter-screen for beta2AR agonist internalization project, dose response (AID 651729)).

Row | SMILES | EC50
1 | CCOC(=O)c1ccc(NC(=O)Cn2nnc(-c3ccccc3)n2)cc1 | 134 nM
2 | CC(=O)Nc1ccc(S(=O)(=O)NCCc2csc(-c3cccnc3)n2)cc1 | 11 nM
3 | CN(CC(=O)N1CCN(c2ccccn2)CC1)S(=O)(=O)c1ccc(Cl)cc1 | 5.23 nM
4 | CCOC(=O)c1ccc(NC(=O)COc2ccc(S(=O)(=O)N3CCCC3)cc2)cc1 | 124 nM
